Reference: ChEMBL document CHEMBL3588812, “Thiophene and benzodioxole appended thiazolyl-pyrazoline compounds: Microwave assisted synthesis, antimicrobial and molecular docking studies” (2015)
Active and inactive are the calls of the source. The rule behind the calls is not given here.

Key:
[1] = system: Proteus vulgaris; assay: Antimicrobial activity against Proteus vulgaris MTCC 1771 assessed as inhibition of visual microbial growth incubated for 24 hrs at 37 degC; assay type: functional
[2] = system: Micrococcus luteus; assay: Antimicrobial activity against Micrococcus luteus MTCC 106 assessed as inhibition of visual microbial growth incubated for 24 hrs at 37 degC; assay type: functional; settings: MTCC 106, 24 h
[3] = system: Staphylococcus aureus; assay: Antimicrobial activity against Staphylococcus aureus MTCC 96 assessed as inhibition of visual microbial growth incubated for 24 hrs at 37 degC; assay type: functional; settings: MTCC 96, 24 h
[4] = system: Malassezia pachydermatis; assay: Antimicrobial activity against Malassezia pachydermatis assessed as inhibition of visual microbial growth incubated for 48 to 72 hrs at 28 degC; assay type: functional
[5] = system: Candida albicans; assay: Antimicrobial activity against Candida albicans MTCC 227 assessed as inhibition of visual microbial growth incubated for 48 to 72 hrs at 28 degC; assay type: functional
[6] = system: Klebsiella pneumoniae; assay: Antimicrobial activity against Klebsiella pneumoniae MTCC 109 assessed as inhibition of visual microbial growth incubated for 24 hrs at 37 degC; assay type: functional; settings: MTCC 109, 24 h
[7] = system: Staphylococcus aureus; assay: Antimicrobial activity against methicillin-resistant Staphylococcus aureus assessed as inhibition of visual microbial growth incubated for 24 hrs at 37 degC; assay type: functional
[8] = system: Salmonella typhimurium; assay: Antimicrobial activity against Salmonella typhimurium MTCC 1251 assessed as inhibition of visual microbial growth incubated for 24 hrs at 37 degC; assay type: functional, Salmonella enterica subsp. enterica serovar Typhimurium; settings: Salmonella enterica, MTCC 1251, 24 h
[9] = system: Shigella flexneri; assay: Antimicrobial activity against Shigella flexneri MTCC 1457 assessed as inhibition of visual microbial growth incubated for 24 hrs at 37 degC; assay type: functional
[10] = system: Klebsiella aerogenes; assay: Antimicrobial activity against Enterobacter aerogenes MTCC 111 assessed as inhibition of visual microbial growth incubated for 24 hrs at 37 degC; assay type: functional

Molecule | MIC [1] | MIC [2] | MIC ([1]; MTCC 1771, 24 h) | MIC [3] | MIC [4] | MIC [5] | MIC [6] | MIC [7] | MIC [8] | MIC ([9]; MTCC 1457, 24 h) | MIC ([10]; MTCC 111, 24 h) | MIC [10] | MIC [9]
GENTAMICIN | 32 µg/mL |  |  |  |  |  |  |  |  |  |  |  | 
Fc1cc(-c2csc(N3N=C(c4cccs4)CC3c3ccc4c(c3)OCO4)n2)ccc1Cl (stereo not given) |  | 62.5 µg/mL | 500 µg/mL | 500 µg/mL | 500 µg/mL | 125 µg/mL | 250 µg/mL | 250 µg/mL | 500 µg/mL | 125 µg/mL | 125 µg/mL |  | 
N#Cc1ccc(-c2csc(N3N=C(c4cccs4)CC3c3ccc4c(c3)OCO4)n2)cc1 (stereo not given) |  | 125 µg/mL | 125 µg/mL | 125 µg/mL | 500 µg/mL | 125 µg/mL | 250 µg/mL | 250 µg/mL | 125 µg/mL | 250 µg/mL | 250 µg/mL |  | 
Fc1ccccc1-c1csc(N2N=C(c3cccs3)CC2c2cc3c(cc2Br)OCO3)n1 (stereo not given) |  | 125 µg/mL | 500 µg/mL | 250 µg/mL | 500 µg/mL | 125 µg/mL | 250 µg/mL | 250 µg/mL | 125 µg/mL | 250 µg/mL | 250 µg/mL |  | 
O=[N+]([O-])c1ccc(-c2csc(N3N=C(c4cccs4)CC3c3cc4c(cc3Br)OCO4)n2)cc1 (stereo not given) |  | 125 µg/mL | 125 µg/mL | 250 µg/mL | 500 µg/mL | 125 µg/mL | 250 µg/mL | 62.5 µg/mL | 62.5 µg/mL | 250 µg/mL | 250 µg/mL |  | 
CN[C@@H]1[C@H](O[C@H]2[C@H](O[C@H]3[C@H](O)[C@@H](O)[C@H](N=C(N)N)[C@@H](O)[C@@H]3N=C(N)N)O[C@@H](C)[C@]2(O)C=O)O[C@@H](CO)[C@H](O)[C@H]1O [STREPTOMYCIN] |  | 6.25 µg/mL |  | 6.25 µg/mL |  |  | 6.25 µg/mL | 6.25 µg/mL | 30 µg/mL | 6.25 µg/mL | 25 µg/mL |  | 
c1ccc(-c2csc(N3N=C(c4cccs4)CC3c3ccc4c(c3)OCO4)n2)cc1 (stereo not given) |  | 250 µg/mL | 500 µg/mL | 500 µg/mL | 500 µg/mL | 250 µg/mL | 500 µg/mL | 500 µg/mL | 250 µg/mL | 500 µg/mL | 250 µg/mL |  | 
Cc1ccc(-c2csc(N3N=C(c4cccs4)CC3c3cc4c(cc3Br)OCO4)n2)cc1 (stereo not given) |  | 62.5 µg/mL | 125 µg/mL | 62.5 µg/mL | 250 µg/mL | 125 µg/mL | 62.5 µg/mL | 250 µg/mL | 62.5 µg/mL | 125 µg/mL | 125 µg/mL |  | 
Fc1cc(Cl)ccc1-c1csc(N2N=C(c3cccs3)CC2c2cc3c(cc2Br)OCO3)n1 (stereo not given) |  | 125 µg/mL | 62.5 µg/mL | 125 µg/mL | 125 µg/mL | 62.5 µg/mL | 62.5 µg/mL | 62.5 µg/mL | 31.2 µg/mL | 62.5 µg/mL | 125 µg/mL |  | 
N#Cc1ccc(-c2csc(N3N=C(c4cccs4)CC3c3cc4c(cc3Br)OCO4)n2)cc1 (stereo not given) |  | 62.5 µg/mL | 62.5 µg/mL | 62.5 µg/mL | 125 µg/mL | 125 µg/mL | 125 µg/mL | 125 µg/mL | 125 µg/mL | 125 µg/mL | 125 µg/mL |  | 
CC(=O)N1CCN(c2ccc(OCC3COC(Cn4ccnc4)(c4ccc(Cl)cc4Cl)O3)cc2)CC1 (stereo not given) [KETOCONAZOLE] |  |  |  |  |  | 25 µg/mL |  |  |  |  |  |  | 
Cc1ccc(-c2csc(N3N=C(c4cccs4)CC3c3ccc4c(c3)OCO4)n2)cc1 (stereo not given) |  | 500 µg/mL | 500 µg/mL | 250 µg/mL | 500 µg/mL | 125 µg/mL | 125 µg/mL | 250 µg/mL | 125 µg/mL | 250 µg/mL |  | inactive | 
Clc1ccc(-c2csc(N3N=C(c4cccs4)CC3c3ccc4c(c3)OCO4)n2)cc1 (stereo not given) |  | 250 µg/mL | 125 µg/mL | 125 µg/mL | 500 µg/mL | 500 µg/mL | 62.5 µg/mL | 250 µg/mL | 250 µg/mL | 250 µg/mL | 250 µg/mL |  | 
Fc1cc(-c2csc(N3N=C(c4cccs4)CC3c3cc4c(cc3Br)OCO4)n2)ccc1Cl (stereo not given) |  | 125 µg/mL | 125 µg/mL | 125 µg/mL | 500 µg/mL | 500 µg/mL | 125 µg/mL | 250 µg/mL | 125 µg/mL | 125 µg/mL | 250 µg/mL |  | 
N#Cc1cccc(-c2csc(N3N=C(c4cccs4)CC3c3ccc4c(c3)OCO4)n2)c1 (stereo not given) |  | 31.2 µg/mL | 250 µg/mL | 31.2 µg/mL | 250 µg/mL | 125 µg/mL | 62.5 µg/mL | 62.5 µg/mL | 62.5 µg/mL | 125 µg/mL | 125 µg/mL |  | 
O=[N+]([O-])c1ccc(-c2csc(N3N=C(c4cccs4)CC3c3ccc4c(c3)OCO4)n2)cc1 (stereo not given) | inactive | 250 µg/mL |  | 500 µg/mL | 500 µg/mL | 250 µg/mL | 500 µg/mL | inactive | 500 µg/mL | 500 µg/mL | 500 µg/mL |  | 
Fc1ccc(-c2csc(N3N=C(c4cccs4)CC3c3cc4c(cc3Br)OCO4)n2)cc1 (stereo not given) | inactive | 125 µg/mL |  | 250 µg/mL | 500 µg/mL | 250 µg/mL | 500 µg/mL | inactive | 250 µg/mL | 250 µg/mL | 250 µg/mL |  | 
Fc1ccccc1-c1csc(N2N=C(c3cccs3)CC2c2ccc3c(c2)OCO3)n1 (stereo not given) |  | 125 µg/mL | 500 µg/mL | 250 µg/mL | 500 µg/mL | 500 µg/mL | 500 µg/mL | 250 µg/mL | 250 µg/mL |  | 500 µg/mL |  | inactive
Fc1cc(Cl)ccc1-c1csc(N2N=C(c3cccs3)CC2c2ccc3c(c2)OCO3)n1 (stereo not given) |  | 250 µg/mL | 500 µg/mL | 250 µg/mL | 250 µg/mL | 250 µg/mL | 125 µg/mL | 125 µg/mL | 125 µg/mL | 125 µg/mL | 250 µg/mL |  | 
Brc1cc2c(cc1C1CC(c3cccs3)=NN1c1nc(-c3ccccc3)cs1)OCO2 (stereo not given) |  | 125 µg/mL | 62.5 µg/mL | 125 µg/mL | 125 µg/mL | 125 µg/mL | 250 µg/mL | 250 µg/mL | 125 µg/mL | 250 µg/mL | 62.5 µg/mL |  | 
OC(Cn1cncn1)(Cn1cncn1)c1ccc(F)cc1F [FLUCONAZOLE] |  |  |  |  | 24 µg/mL |  |  |  |  |  |  |  | 
N#Cc1cccc(-c2csc(N3N=C(c4cccs4)CC3c3cc4c(cc3Br)OCO4)n2)c1 (stereo not given) |  | 31.2 µg/mL | 31.2 µg/mL | 31.2 µg/mL | 125 µg/mL | 62.5 µg/mL | 62.5 µg/mL | 62.5 µg/mL | 31.2 µg/mL | 62.5 µg/mL | 62.5 µg/mL |  | 
Clc1ccc(-c2csc(N3N=C(c4cccs4)CC3c3cc4c(cc3Br)OCO4)n2)cc1 (stereo not given) |  | 31.2 µg/mL | 250 µg/mL | 125 µg/mL | 125 µg/mL | 125 µg/mL | 31.2 µg/mL | 62.5 µg/mL | 62.5 µg/mL | 125 µg/mL | 125 µg/mL |  | 
Fc1ccc(-c2csc(N3N=C(c4cccs4)CC3c3ccc4c(c3)OCO4)n2)cc1 (stereo not given) |  | 250 µg/mL | 500 µg/mL | 500 µg/mL | 250 µg/mL | 125 µg/mL | 250 µg/mL | 250 µg/mL | 500 µg/mL | 250 µg/mL | 125 µg/mL |  | 
